Structures can show the parent of a compound that is named as a salt. Where two headings read alike, the source gives them in different places.
System: HCT116 cells
Experiment: HCT116 cytotoxic activity assay
Format: cell-based
Conditions: Homo sapiens, HCT-116, 72 h with compound, Alamar Blue readout
[1] = read-out: IC50 in the HCT116 cytotoxic activity assay
[2] = read-out: IC50 in the HCT116 cytotoxic activity assay (upper bound of the class >500 nM)

Method: Human tumor cells, e.g., HCT116 cells, are seeded in a 96-well plate at 3.0×10^3 cells/well and grown in 100 μl of RPMI complete media (Invitrogen Corporation, Grand Island, N.Y.) containing 10% fetal bovine serum (Hyclone, Logan, Utah) and 10 mM HEPES and at 37° C. for 16 h in an incubator with 5% CO2. To each well, 50 μl of additional growth media containing 20 μM to 60 nM concentrations of compound with 0.2% DMSO is added. Cells are grown for another 72 h at 37° C. 20 μl of Alamar Blue (Trek Diagnostic Systems, Inc., Cleveland, Ohio) reagent is added to each well and incubated for 4 h at 37° C. Plates are read in a SpectraMax Gemini (Molecular Devices, CA) with 544 nm excitation and 590 nm emission wavelength. IC50 values are determined by linear regression analysis of log drug concentration versus percent inhibition.

Compound | IC50 [1] | IC50 [2]
C=C(OCC)c1cc(Nc2ccc(Oc3ccnc(C(F)(F)F)c3)cc2)nc(N)n1 [Example 1, 6-(1-ethoxyvinyl)-N^4-(4-{[2-(trifluoromethyl)pyridin-4-yl]oxy}phenyl)pyrimidine-2,4-diamine] | > 500 nM | ≤ 10000 nM
CC(O)c1cc(Nc2ccc(Oc3ccnc(C(F)(F)F)c3)cc2)nc(N)n1 (stereo not drawn) [Example 2, 1-{2-amino-6-[(4-{[2-(trifluoromethyl)pyridin-4-yl]ox-}phenyl)amino]pyrimidin-4-yl}ethanol] | > 500 nM | ≤ 10000 nM
N#Cc1cc(Oc2ccc(Nc3cc(/C=C/c4ccc(F)cc4)nc(N)n3)cc2)ccn1 [Example 3, 4-[4-({2-amino-6-[(E)-2-(4-fluorophenyl)vinyl]pyrimidin-4-yl}amino)phenoxy]pyridine-2-carbonitrile] | ≤ 500 nM | 
Nc1nc(/C=C/c2ccc(F)cc2)cc(Nc2ccc(Oc3ccnc(C(F)(F)F)c3)cc2)n1 [Example 5, 6-[(E)-2-(4-fluorophenyl)vinyl]-N^4-(4-{[2-(trifluoromethyl)pyridin-4-yl]oxy}phenyl)pyrimidine-2,4-diamine] | ≤ 500 nM | 
Nc1nc(/C=C/CCO)cc(Nc2ccc(Oc3ccnc(C(F)(F)F)c3)cc2)n1 [Example 8, (3E)-4-[2-amino-6-[(4-{[2-(trifluoromethyl)pyridin-4-yl]oxy}phenyl)amino]pyrimidin-4-yl]but-3-en-1-ol] | ≤ 500 nM | 
NCCCc1cc(Nc2ccc(Oc3ccnc(C(F)(F)F)c3)cc2)nc(N)n1 [Example 14, 6-(3-aminopropyl)-N^4-(4-{[2-(trifluoromethyl)pyridin-4-yl]oxy}phenyl)pyrimidine-2,4-diamine hydrochloride] | > 500 nM | ≤ 10000 nM
Nc1nc(CCCCO)cc(Nc2ccc(Oc3ccnc(C(F)(F)F)c3)cc2)n1 [Example 15, 4-{2-amino-6-[(4-{[2-(trifluoromethyl)pyridin-4-yl]oxy}phenyl)amino]pyrimidin-4-yl}butan-1-ol] | ≤ 500 nM | 
Nc1nc(CCCO)cc(Nc2ccc(Oc3ccnc(C(F)(F)F)c3)cc2)n1 [Example 16, 4-{2-amino-6-[(4-{[2-(trifluoromethyl)pyridin-4-yl]oxy}phenyl)amino]pyrimidin-4-yl}propan-1-ol] | ≤ 500 nM | 
Nc1nc(CCC(O)CO)cc(Nc2ccc(Oc3ccnc(C(F)(F)F)c3)cc2)n1 (stereo not drawn) [Example 17, 4-{2-amino-6-[(4-{[2-(trifluoromethyl)pyridin-4-yl]oxy}phenyl)amino]pyrimidin-4-yl}butane-1,2-diol] | > 500 nM | ≤ 10000 nM
Nc1nc(C#Cc2ccc(F)cc2)cc(Nc2ccc(Oc3ccnc(C(F)(F)F)c3)cc2)n1 [Example 22, 6-[(4-fluorophenyl)ethynyl]-N^4-(4-{[2-(trifluoromethyl)pyridin-4-yl]oxy}phenyl)pyrimidine-2,4-diamine] | ≤ 500 nM | 
Nc1nc(CCc2ccc(F)cc2)cc(Nc2ccc(Oc3ccnc(C(F)(F)F)c3)cc2)n1 [Example 29, 6-[2-(4-fluorophenyl)ethyl]-N^4-(4-{[2-(trifluoromethyl)pyridin-4-yl]oxy}phenyl)pyrimidine-2,4-diamine] | ≤ 500 nM | 
COc1cccc(CCc2cc(Nc3ccc(Oc4ccnc(C(F)(F)F)c4)cc3)nc(N)n2)c1 [Example 31, 6-[2-(3-methoxyphenyl)ethyl]-N4-(4-{[2-(trifluoromethyl)pyridin-4-yl]oxy}phenyl)pyrimidine-2,4-diamine] | ≤ 500 nM | 
Nc1nc(CCc2cccc(O)c2)cc(Nc2ccc(Oc3ccnc(C(F)(F)F)c3)cc2)n1 [Example 35, 3-(2-{2-amino-6-[(4-{[2-(trifluoromethyl)pyridin-4-yl]oxy}phenyl)-amino]pyrimidin-4-yl}ethyl)phenol] | > 500 nM | ≤ 10000 nM
Nc1ccc(/C=C/c2cc(Nc3ccc(Oc4ccnc(C(F)(F)F)c4)cc3)nc(N)n2)cc1 [Example 39A, 6-[(E)-2-(4-aminophenyl)vinyl]-N^4-(4-{[2-(trifluoromethyl)pyridin-4-yl]oxy}phenyl)pyrimidine-2,4-diamine trifluoroacetate] | > 500 nM | ≤ 10000 nM
Nc1ccc(/C=C\c2cc(Nc3ccc(Oc4ccnc(C(F)(F)F)c4)cc3)nc(N)n2)cc1 [Example 39B, 6-[(Z)-2-(4-aminophenyl)vinyl]-N^4-(4-{[2-(trifluoromethyl)pyridin-4-yl]oxy}phenyl)pyrimidine-2,4-diamine trifluoroacetate] | > 500 nM | ≤ 10000 nM
Nc1ccc(CCc2cc(Nc3ccc(Oc4ccnc(C(F)(F)F)c4)cc3)nc(N)n2)cc1 [Example 40, 6-[2-(4-aminophenyl)ethyl]-N^4-(4-{[2-(trifluoromethyl)pyridin-4-yl]oxy}phenyl)pyrimidine-2,4-diamine trifluoroacetate] | ≤ 500 nM | 
Cc1cc(Oc2ccc(Nc3cc(/C=C/c4ccccc4)nc(N)n3)cc2)ccn1 [Example 41, N^4-{4-[(2-methylpyridin-4-yl)oxy]phenyl}-6-[(E)-2-phenylvinyl]-pyrimidine-2,4-diamine] | ≤ 500 nM | 

Source: patent publication US20090258888A1, “Pyrimidine Derivatives” (Bayer Pharmaceuticals Corporation, priority 2005, published 2009)
